{"source": "patent US20250268826A1", "about": "“IONIZABLE LIPIDOID COMPOSITIONS AND THERAPEUTIC USES THEREOF” (Flagship Pioneering Innovations VII, LLC, priority 2023, published 2025)", "key": {"[1]": {"test": "LNP size and polydispersity index (PDI) by dynamic light scattering (DLS)", "format": "physicochemical"}, "[2]": {"test": "LNP Zeta potential measured using a Zetasizer (Malvern)", "format": "physicochemical", "conditions": "for Zeta potential (mV): LNP with hEPO mRNA, N:P ratio 6; for Zeta potential: hEPO mRNA, N:P 6"}, "[3]": {"test": "Encapsulation efficiency (EE %) by fluorescence based Ribogreen assay", "format": "physicochemical", "conditions": "for Encapsulation Efficiency %: Table 11, LNP with hEPO mRNA, Lipid:DSPC:Cholesterol:DMG-PEG2k 50:10:38.5:1.5 mol % (ALC-0315: 46.3:9.4:42.7:1.6), N:P ratio 6, HEPES/sodium chloride/sucrose buffer, stored at −80C"}, "[4]": {"test": "Apparent pKa of the LNPs by fluorescence based TNS assay", "conditions": "Vaccine Study 2; LNP with spike mRNA, 50/10/38.5/1.5 mol % ionizable lipid:helper lipid:cholesterol:DMG-PEG2k, N-to-P ratio 6"}, "[5]": {"conditions": "Table 11, LNP with hEPO mRNA, Lipid:DSPC:Cholesterol:DMG-PEG2k 50:10:38.5:1.5 mol % (ALC-0315: 46.3:9.4:42.7:1.6), N:P ratio 6, HEPES/sodium chloride/sucrose buffer, stored at −80C"}, "[6]": {"conditions": "Table 11, Lipid:DSPC:Cholesterol:DMG-PEG2k 50:10:38.5:1.5 mol % (ALC-0315: 46.3:9.4:42.7:1.6), HEPES/sodium chloride/sucrose buffer, stored at −80C"}, "[7]": {"conditions": "Example 19 Study 1, LNP with SARS-CoV-2 spike mRNA, N:P 6, standard mol. ratios unless noted \"opt\""}, "[8]": {"conditions": "Table 1, LNP lipid:DSPC:Cholesterol:DMG-PEG2k 50:10:38.5:1.5 mol %, hEPO mRNA, N:P 6"}, "[9]": {"conditions": "Table 10, LNP with hEPO mRNA, Lipid:DSPC:Cholesterol:DMG-PEG2k 50:10:38.5:1.5 mol %, N:P ratio 6, DLS"}, "[10]": {"conditions": "Vaccine Study 2, LNP with spike mRNA, 50/10/38.5/1.5 mol % ionizable lipid:helper lipid:cholesterol:DMG-PEG2k, N-to-P ratio 6"}}, "data": [{"smiles": "CCCCCCCCC(CCCCCC)C(=O)OCCN(CCOC(=O)C(CCCCCC)CCCCCCCC)C(=O)C(C)CCNCCC.Cl", "note": "(centres unmarked) [Compound 987h]", "values": [{"measurement": "PDI", "setting": "[1]; [5]", "result": 0.099}, {"measurement": "Size (nm)", "setting": "[1]; [5]", "result": 69.1, "unit": "nm"}, {"measurement": "Zeta potential (mV)", "setting": "[2]; [6]", "result": 0.0, "unit": "mV"}, {"measurement": "Encapsulation Efficiency %", "setting": "[3]", "result": 99.4, "unit": "%"}]}, {"smiles": "CCCCCCCCC(CCCCCC)C(=O)OCCN(CCOC(=O)C(CCCCCC)CCCCCCCC)C(=O)C(C)CCN(C)CCC.Cl", "note": "(centres unmarked) [Compound 987i]", "values": [{"measurement": "PDI", "setting": "[1]; [5]", "result": 0.059}, {"measurement": "Size (nm)", "setting": "[1]; [5]", "result": 71.7, "unit": "nm"}, {"measurement": "Zeta potential (mV)", "setting": "[2]; [6]", "result": "−4.1", "unit": "mV"}, {"measurement": "Encapsulation Efficiency %", "setting": "[3]", "result": 94.9, "unit": "%"}]}, {"smiles": "CCCCCCCCC(CCCCCC)C(=O)OCCN(CCOC(=O)C(CCCCCC)CCCCCCCC)C(=O)C(C)CCN(CC)CCC.Cl", "note": "(centres unmarked) [Compound 987j]", "values": [{"measurement": "PDI", "setting": "[1]; [5]", "result": 0.101}, {"measurement": "Size (nm)", "setting": "[1]; [5]", "result": 76.6, "unit": "nm"}, {"measurement": "Zeta potential (mV)", "setting": "[2]; [6]", "result": "−4.4", "unit": "mV"}, {"measurement": "Encapsulation Efficiency %", "setting": "[3]", "result": 95.7, "unit": "%"}]}, {"smiles": "CCCCCCCCC(CCCCCC)C(=O)OCCN(CCOC(=O)C(CCCCCC)CCCCCCCC)C(=O)C(C)CCN(CCC)CCC.Cl", "note": "(centres unmarked) [Compound 987k]", "values": [{"measurement": "PDI", "setting": "[1]; [5]", "result": 0.045}, {"measurement": "Size (nm)", "setting": "[1]; [5]", "result": 76.7, "unit": "nm"}, {"measurement": "Zeta potential (mV)", "setting": "[2]; [6]", "result": "−3.4", "unit": "mV"}, {"measurement": "Encapsulation Efficiency %", "setting": "[3]", "result": 87.2, "unit": "%"}]}, {"smiles": "CCCCCCCCC(CCCCCC)C(=O)OCCN(CCOC(=O)C(CCCCCC)CCCCCCCC)C(=O)C(C)CCN1CCCC1.Cl", "note": "(centres unmarked) [Compound 987l]", "values": [{"measurement": "PDI", "setting": "[1]; [5]", "result": 0.051}, {"measurement": "Size (nm)", "setting": "[1]; [5]", "result": 76.4, "unit": "nm"}, {"measurement": "Zeta potential (mV)", "setting": "[2]; [6]", "result": "−2.9", "unit": "mV"}, {"measurement": "Encapsulation Efficiency %", "setting": "[3]", "result": 95.9, "unit": "%"}]}, {"smiles": "CCCCCCCCC(CCCCCC)C(=O)OCCN(CCOC(=O)C(CCCCCC)CCCCCCCC)C(=O)C(C)CCN1CCCCC1.Cl", "note": "(centres unmarked) [Compound 987m]", "values": [{"measurement": "PDI", "setting": "[1]; [5]", "result": 0.076}, {"measurement": "Size (nm)", "setting": "[1]; [5]", "result": 73.7, "unit": "nm"}, {"measurement": "Zeta potential (mV)", "setting": "[2]; [6]", "result": "−5.1", "unit": "mV"}, {"measurement": "Encapsulation Efficiency %", "setting": "[3]", "result": 94.9, "unit": "%"}]}, {"smiles": "CCCCCCCCC(CCCCCC)C(=O)OCCN(CCOC(=O)C(CCCCCC)CCCCCCCC)C(=O)C(C)CCN1CCOCC1.Cl", "note": "(centres unmarked) [Compound 987n]", "values": [{"measurement": "PDI", "setting": "[1]; [5]", "result": 0.107}, {"measurement": "Size (nm)", "setting": "[1]; [5]", "result": 65.7, "unit": "nm"}, {"measurement": "Zeta potential (mV)", "setting": "[2]; [6]", "result": "−3.8", "unit": "mV"}, {"measurement": "Encapsulation Efficiency %", "setting": "[3]", "result": 77.8, "unit": "%"}]}, {"smiles": "CCCCCCCCC(CCCCCC)C(=O)OCCN(CCOC(=O)C(CCCCCC)CCCCCCCC)C(=O)C(C)CCN(CCCC)CCCC.Cl", "note": "(centres unmarked) [Compound 987o]", "values": [{"measurement": "PDI", "setting": "[1]; [5]", "result": 0.121}, {"measurement": "Size (nm)", "setting": "[1]; [5]", "result": 57.4, "unit": "nm"}, {"measurement": "Zeta potential (mV)", "setting": "[2]; [6]", "result": "−4.1", "unit": "mV"}, {"measurement": "Encapsulation Efficiency %", "setting": "[3]", "result": 90.2, "unit": "%"}]}, {"smiles": "CCCCCCCCC(CCCCCC)C(=O)OCCN(CCOC(=O)C(CCCCCC)CCCCCCCC)C(=O)C(C)CCN(C)CCO.Cl", "note": "(centres unmarked) [Compound 987p]", "values": [{"measurement": "PDI", "setting": "[1]; [5]", "result": 0.114}, {"measurement": "Size (nm)", "setting": "[1]; [5]", "result": 74.2, "unit": "nm"}, {"measurement": "Zeta potential (mV)", "setting": "[2]; [6]", "result": "−1.5", "unit": "mV"}, {"measurement": "Encapsulation Efficiency %", "setting": "[3]", "result": 99.2, "unit": "%"}]}, {"smiles": "CCCCC/C=C\\C/C=C\\CCCCCCCCC(CCCCCCCC/C=C\\C/C=C\\CCCCC)OC(=O)CCCN(C)C", "note": "[Dlin-MC3-DMA, dilinoleylmethyl-4-dimethylaminobutyrate, reference compound]", "values": [{"measurement": "Apparent pKa", "setting": "[4]", "result": 6.7}]}, {"smiles": "CCCCCCCCCCCOC(=O)CCCCCN(CCO)CCCCCCCC(=O)OC(CCCCCCCC)CCCCCCCC", "note": "[SM-102, reference compound]", "values": [{"measurement": "Apparent pKa", "setting": "[4]", "result": 7.2}, {"measurement": "PDI", "setting": "[1]; [7]", "result": 0.065}, {"measurement": "Size", "setting": "[1]; [7]", "result": 94.8, "unit": "nm"}, {"measurement": "PDI", "setting": "[1]; [8]", "result": 0.074}, {"measurement": "Size", "setting": "[1]; [8]", "result": 81.8, "unit": "nm"}, {"measurement": "PDI", "setting": "[1]; Table 7, LNP 50:10:38.5:1.5 mol %, helper lipid DSPC, hEPO mRNA, N:P 6", "result": 0.041}, {"measurement": "Size", "setting": "[1]; Table 7, LNP ionizable lipid:Helper Lipid:Cholesterol:DMG-PEG2k 50:10:38.5:1.5 mol %, helper lipid DSPC, hEPO mRNA, N:P 6", "result": 75.3, "unit": "nm"}, {"measurement": "PDI", "setting": "[1]; Table 8, LNP 50:10:38.5:1.5 mol %, hEPO mRNA, N:P 6", "result": 0.042}, {"measurement": "Size", "setting": "[1]; Table 8, LNP Lipid:DSPC:Cholesterol:DMG-PEG2k 50:10:38.5:1.5 mol %, hEPO mRNA, N:P 6", "result": 80.3, "unit": "nm"}, {"measurement": "PDI", "setting": "[1]; Table 9, LNP 50:10:38.5:1.5 mol %, hEPO mRNA, N:P 6", "result": 0.098}, {"measurement": "Size", "setting": "[1]; Table 9, LNP Lipid:DSPC:Cholesterol:DMG-PEG2k 50:10:38.5:1.5 mol %, hEPO mRNA, N:P 6", "result": 80.7, "unit": "nm"}, {"measurement": "PDI", "setting": "[1]; [9]", "result": 0.272}, {"measurement": "Size (nm)", "setting": "[1]; [9]", "result": 56.5, "unit": "nm"}, {"measurement": "PDI", "setting": "[1]; [5]", "result": 0.087}, {"measurement": "Size (nm)", "setting": "[1]; [5]", "result": 69.6, "unit": "nm"}, {"measurement": "PDI", "setting": "[1]; [10]", "result": 0.127}, {"measurement": "Size (nm)", "setting": "[1]; [10]", "result": 88.4, "unit": "nm"}, {"measurement": "Zeta potential", "setting": "[2]; Table 1, LNP lipid:DSPC:Cholesterol:DMG-PEG2k 50:10:38.5:1.5 mol %", "result": "−3.729", "unit": "mV"}, {"measurement": "Zeta potential", "setting": "[2]; Table 7, LNP 50:10:38.5:1.5 mol %, helper lipid DSPC", "result": "−17.15", "unit": "mV"}, {"measurement": "Zeta potential", "setting": "[2]; Table 8, LNP 50:10:38.5:1.5 mol %", "result": "−9.7", "unit": "mV"}, {"measurement": "Zeta potential (mV)", "setting": "[2]; Table 10, Lipid:DSPC:Cholesterol:DMG-PEG2k 50:10:38.5:1.5 mol %", "result": "−5.9", "unit": "mV"}, {"measurement": "Zeta potential (mV)", "setting": "[2]; [6]", "result": "−1.0", "unit": "mV"}, {"measurement": "Zeta (mV)", "setting": "[2]; [10]", "result": "−4.1", "unit": "mV"}, {"measurement": "EE (%)", "setting": "[3]; [7]", "result": 91.5, "unit": "%"}, {"measurement": "EE (%)", "setting": "[3]; [10]", "result": 97.8, "unit": "%"}]}]}
